The values that follow come from US7018813B2 (priority 2000, dated 2006).

Read-outs that look alike come from different tables or passages of the source.

For data set [1] the following is noted: at 25° C.; cited from earlier work.
The conditions of data set [2]: cited from earlier work.
Data set [3] deals with B. pertussis strain ATCC 9797 or CS87. The data set is classed as cell-based, Bordetella pertussis.

Turning to `O=S(=O)([O-])[O-].[Ag+].[Ag+]` [AgSO4], in data set [1], the Ksp was 1.19 × 10^−5.
For `O=S(=O)([O-])[O-].[Pb+2]` [PbSO4], the Ksp in data set [1] is 1.82 × 10^−8.
Regarding `O=S(=O)([O-])[O-].[Sr+2]` [SrSO4], the Ksp in data set [1] is reported as 3.42 × 10^−7.
Consider BaSO4, for which the solubility in water is 10.7 µM in data set [2] (at 25° C.) and 17.7 µM in data set [2] (at 100° C.). The Ksp in data set [1] is listed as 1.05 × 10^−10.
Take Barium chloride [BaCl2]: the “amount of PT” value in data set [3] is 0.525 μg/mL/OD650.
